For one series, the system named is HEK 293T cells. Kind of series: HEK293T cell proliferation assay ([3H]-thymidine incorporation). The series is classed as cell-based, human. As to conditions: Homo sapiens; anti-proliferative activity, HEK 293T cells, 24 h drug exposure; read-out: IC50 ± SEM. The source says:
Cells and culture conditions. Primary astrocytes (Lonza, Walkersville, Md.; ABM™ Basal Media with AGM™ SingleQuots™ Supplement Pack), fibroblast (ATCC; Fibroblast Basal Medium (ATCC© PCS-201-030™) with Fibroblast Growth Kit-Serum-free (ATCC© PCS-201-040™)), airway epithelial cell (ATCC; Airway Epithelial Cell Basal Medium (ATCC© PCS-300-030™) with Bronchial Epithelial Cell Growth Kit (ATCC© PCS-300-040™)), renal proximal tubule (ATCC; Renal Epithelial Cell Basal Medium (ATCC© PCS-400-030™) with Renal Epithelial Cell Growth Kit (ATCC© PCS-400-040™)), prostate epithelial cell (Lonza; PrEGM™ BulletKit™) and mammary epithelial cell (Lonza; MEBM™ BulletKit™) were kept in a humidified incubator at 37° C. adjusted to 5% CO2. Prostate (PC3, LNCaP, DU-145), breast (MDA-MB-231, MDA-MB-453, SK-BR-3), head and neck (A253, Detroit 562, SCC-25), melanoma (SK-Mel-3, SK-Mel-1, RPMI-7951), pancreatic (CfPAC-1, BxPC3, SW1990), lung (A549, NCI-H1299, NCI-H1437) and liver (SNU-475, SK-HEP-1, SNU-387) cancer cell lines were obtained from ATCC and cultured in their respective media (prostate cells: RPMI-1640, MDA-MB-231: RPMI-1640, MDA-MB-453: Leibovitz's L-15, SK-BR-3: McCoy's 5a, A253: McCoy's 5a, Detroit 562: EMEM, SCC-25: DMEM, SK-Mel-3: McCoy's 5a, SK-Mel-1: EMEM, RPMI-7951: EMEM), CfPAC-1: IMDM, BxPC3: RPMI-1640, SW1990: Leibovitz's L-15), A549: F-12K, NCI-H1299: RPMI-1640, NCI-H1437: RPMI-1640, SNU-475: RPMI-1640, SK-HEP-1: EMEM, SNU-387: RPMI-1640. All media were supplemented with 10% (vol/vol) filtered fetal bovine serum (FBS, Invitrogen, Carlsbad, Calif.), 1% penicillin/streptomycin (Invitrogen) and maintained in a humidified incubator at 37° C. with 5% CO2 except for MDA-MB-453 and SW1990 grown at 37° C. without CO2 control. Wild type (ATCC) and C342T XPB knock-in cells (named T7115) of Human Embryonic Kidney 293T (HEK293T), HeLa (ATCC) were cultured in DMEM (GIBCO) with 10% (vol/vol) filtered fetal bovine serum (FBS, Invitrogen, Carlsbad, Calif.), 1% penicillin/streptomycin (Invitrogen).
(§1) Proliferation and viability assays. [^3H]-thymidine incorporation. HEK293T cells (10,000 cells/well) were seeded into 96-well plates then cultured in DMEM plus 10% FBS and 1% penicillin/streptomycin at 37° C. with 5% CO2 overnight. Drugs were added at indicated concentrations and incubation was continued for an additional 24 h. For hypoxia, PC3 (5,000 cells/well) were exposed to 1% O2 (Airgas) in a humidified hypoxia chamber (Billups-Rothenberg) in 37° C. for 48 h prior to drug exposure for 48 h. Treated cells were then pulsed using an aliquot of 1 μCi of [^3H]-thymidine (Perkin Elmer) per well for an additional 6 h. Radiolabelled cells were harvested onto a printed Filtermat A glass fiber filter (Perkin Elmer) using a Tomtec Harvester 96 Mach III M. Betaplate Scint (Perkin Elmer) scintillation fluid was added to radiolabelled filters followed by scintillation counting on Microbeta2 LumiJET Microplate Counter (Perkin Elmer).

Series [1] has as its system RPB1 in C342T XPB mutant cell line. Kind of series: RPB1 degradation in C342T XPB knock-in cells, western blot. As to conditions: XPB C342T cells, 0.1 mM triptolide (so in the source); 0.1 μM). Format: cell-based, human. The source says:
(§2) Cells and culture conditions. Primary astrocytes (Lonza, Walkersville, Md.; ABM™ Basal Media with AGM™ SingleQuots™ Supplement Pack), fibroblast (ATCC; Fibroblast Basal Medium (ATCC© PCS-201-030™) with Fibroblast Growth Kit-Serum-free (ATCC© PCS-201-040™)), airway epithelial cell (ATCC; Airway Epithelial Cell Basal Medium (ATCC© PCS-300-030™) with Bronchial Epithelial Cell Growth Kit (ATCC© PCS-300-040™)), renal proximal tubule (ATCC; Renal Epithelial Cell Basal Medium (ATCC© PCS-400-030™) with Renal Epithelial Cell Growth Kit (ATCC© PCS-400-040™)), prostate epithelial cell (Lonza; PrEGM™ BulletKit™) and mammary epithelial cell (Lonza; MEBM™ BulletKit™) were kept in a humidified incubator at 37° C. adjusted to 5% CO2. […]
(§3) Western blot analysis. […] Antibody-protein complexes were detected using enhanced chemiluminescence (ECL) immunoblotting detection reagent (EMD Millipore).

A further series concerns MDA MB231 cells. Kind of series: MDA MB231 proliferation under hypoxia ([3H]-thymidine incorporation). The series is classed as cell-based, human. As to conditions: MDA MB231, 1% O2, 48 h post treatment.
A further series deals with Rpb1 in 293T WT cells. Kind of series: RPB1 degradation in 293T WT cells, western blot. The series is classed as cell-based, human. As to conditions: 0.1 mM triptolide (so in the source); 0.1 μM).
Excerpt: as §2, §3

The next series concerns MCF-7. Kind of series: MCF-7 proliferation under hypoxia ([3H]-thymidine incorporation). Format: cell-based, human. As to conditions: MCF-7, 1% O2, 48 h post treatment.
Another series has as its system HeLa. As to the kind of experiment: HeLa proliferation under hypoxia ([3H]-thymidine incorporation). As to conditions: 1% O2, 48 h post treatment. Format: cell-based, human.
The conditions of series [2]: lethal case dosed with 18 mg/m2 F60008; cited from earlier work.
Another series concerns HepG2. Kind of series: HepG2 proliferation under hypoxia ([3H]-thymidine incorporation). As to conditions: HepG2, 1% O2, 48 h post treatment. Format: cell-based, human.
The target in the next series is T1, TFIIH (Homo sapiens, UniProt P19447).
T1 construct: made in house
As to the kind of experiment: DNA-dependent ATPase activity assay of TFIIH. Format: biochemical. As to conditions: 200 nM triptolide. The method, then:
ATPase activity assay. The TFIIH complex was purified and its DNA-dependent ATPase assay was performed as previously described (Titov et al. (2011) Nat. Chem. Biol. 7:182-88). Briefly, a 10-μl reaction mixture contained 20 mM Tris (pH 7.9), 4 mM MgCl2, 1 μM of ATP, 0.1 μCi [^γ-^32P]ATP (3000 Ci/mmol), 100 μg/ml BSA, 100 nM RNA Polymerase II promoter positive control DNA, 1 nM TFIIH and indicated concentrations of triptolide or its analogs. The reactions were started by either addition of TFIIH for 2 hr and stopped by addition of 2 μl of 0.5 M EDTA. An aliquot of 1 μl reaction mixture was spotted on PEI-cellulose (sigma) and the chromatogram was developed with 0.5 M LiCi and 1 M HCOOH. The percent of ATP hydrolysis was quantified using a Typhoon FLA 9500 Variable Imager (GE Healthcare).

The subject of the next series is PC3 cells. Kind of series: PC3 proliferation under hypoxia or normoxia ([3H]-thymidine incorporation). As to conditions: for IC50: Homo sapiens, PC-3, 48 h, 48 h post treatment, read-out: IC50. Format: cell-based, human. As to the method:
as §1

Series [3] has as its system T7115 (C342T XPB knock-in HEK293T cells). Kind of series: Proliferation of XPB C342T knock-in cell line T7115 ([3H]-thymidine incorporation). The series is classed as cell-based, human. As to conditions: C342T XPB knock-in versus isogenic WT 293T.
Excerpt: as §2

Each structure is given as a SMILES string. Like-named read-outs stand apart in the source and are kept apart here.

Take `CC(C)[C@]12O[C@H]1[C@@H]1O[C@]13[C@]1(O[C@H]1C[C@H]1C4=C(CC[C@@]13C)C(=O)OC4)[C@@H]2O` [TPL, (1S,2S,4S,5S,7R,8R,9S,11S,13 S)-8-hydroxy-1-methyl-7-propan-2-yl-3,6,10,16 tetraoxaheptacyclo[11.7.0.02,4.02,9.05,7.09,11.014,18] icos-14(18)-en-17-one, reference compound]: the IC50 in the series on HEK 293T cells was determined as 5.6 nM; in the series on PC3 cells (PC3, hypoxic conditions (1% O2)) it was 1.5 nM; in the series on PC3 cells (PC3, normoxic conditions (20% O2)), 4.5 nM. Besides, the Rpb1 level result in series [1] is recorded as “Rpb1 levels resemble DMSO control”. In addition, the “effect of hypoxia on anti-proliferative effect” value in the series on MDA MB231 cells is “modest anti-proliferative effect”; with MCF-7, “modest anti-proliferative effect”; in the series on HeLa, “modest anti-proliferative effect”; with HepG2 it was “showed resistance upon hypoxia”. Besides, the “degradation of Rpb1” value in the series on Rpb1 in 293T WT cells is recorded as “leads to the degradation of the Rpb1 subunit”. Moreover, the Maximum serum levels in series [2] is listed as 58.5 ng/mL. For the same compound, in series [2], the “Maximum serum levels (molar)” value is roughly 0.16 mM. Also, the entries for the “inhibition of ATPase activity of TFIIH” value on TFIIH and against TFIIH (listed as triptolide) were “effectively suppresses activity” and “nearly completely inhibited”, respectively. The “fold enhancement of anti-proliferative effect during hypoxia” value in the series with PC3 cells (PC3, hypoxia versus normoxia) is recorded as “three-fold”. In series [3], the “sensitivity of T7115 mutant line (proliferation)” value is reported as “resistant”.

These data come from patent publication US20230134986A1, “GLUCOSE TRIPTOLIDE CONJUGATES AND USES THEREOF” (The Johns Hopkins University, priority 2020, published 2023).
